Experimental data reported in patent US7939253B2, “Methods and compositions for the diagnosis and treatment of ewing's sarcoma” (The University of Utah Research Foundation, priority 2007, dated 2011).

How the values were obtained:
[1] = biological target: casein kinase II (CKII) (Homo sapiens, UniProt P68400); conditions: 5 μg/ml; cited from earlier work
[2] = system: A673 Ewing's sarcoma cells; assay: Soft agar colony formation in the presence of histone deacetylase inhibitor; assay type: cell-based; conditions: 1.5 uM, versus ethanol carrier, FIG. 6
Method: Cell Culture: Ewing's sarcoma cell lines were grown as described (Lessnick et al., 2002). Following retroviral infection, polyclonal cell populations were prepared by growth in the appropriate selective media. Soft agar assays were performed as described (Lessnick et al., 2002). Tet-A673 cells were generated by infection with pREV-TETOFF (Clontech) and selection with G418. A single clone was then infected with FLAG-EWS/FLI-pREV-TRE, and selected with hygromycin in the presence of 1 ug/ml doxycycline and G418 (Lessnick et al., 2002). Individual clones were tested for induction of FLAG-EWS/FLI as previously described (Lessnick et al., 2002).
To test the effect of a histone deacetylase inhibitor on NKX2.2 activity, A673 Ewing's sarcoma cells were seeded into soft agar in the presence of 1.5 uM tricostatin (TSA), or ethanol (the TSA carrier) (FIG. 6). […] Soft agar colony formation is one measure of oncogenic transformation. Thus, the histone deacetylase inhibitor TSA blocks oncogenic transformation of Ewing's sarcoma cells.

Sequence of casein kinase II (CKII) (P68400 whole entry): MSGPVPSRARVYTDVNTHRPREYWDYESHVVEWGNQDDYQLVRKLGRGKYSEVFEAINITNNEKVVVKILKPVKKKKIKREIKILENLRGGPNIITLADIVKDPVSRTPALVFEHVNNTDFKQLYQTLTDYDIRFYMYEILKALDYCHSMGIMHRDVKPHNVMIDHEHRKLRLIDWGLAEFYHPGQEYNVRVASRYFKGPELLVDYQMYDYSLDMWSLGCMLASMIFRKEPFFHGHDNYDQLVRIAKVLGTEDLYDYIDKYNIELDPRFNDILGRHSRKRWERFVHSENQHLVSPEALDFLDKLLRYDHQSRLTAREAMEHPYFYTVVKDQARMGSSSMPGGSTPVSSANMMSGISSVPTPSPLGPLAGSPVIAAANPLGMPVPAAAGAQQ

| Compound | inhibition of the protein kinase activity of CKII [1] [%] | soft agar colony formation (oncogenic transformation) [2] |
| --- | --- | --- |
| heparin | > 90 | – |
| CC(/C=C/C(=O)NO)=C\[C@@H](C)C(=O)c1ccc(N(C)C)cc1 [TSA, Trichostatin A] | – | prevents Ewing's cells from forming colonies in soft agar |
